In patent US4088772A, “Methanodibenzocycloheptapyrroles” (E. I. Du Pont de Nemours and Company, priority 1975, dated 1978):
Counter-ions that a name gives are not always drawn. Like-named read-outs stand apart in the source and are kept apart here.

Legend:
in vivo = conditions: mouse, in vivo, po
Protocol: (§1) Groups of five Carworth CF1 S female mice, 16-20 g each, were fasted 16-22 hours before use. The mice were put in opaque plastic "shoe-box" cages 15-30 min. before injection, and then treated orally with 4, 12, 36, 108 and 324 mg/kg of the compound to be tested as a 13 mg/ml solution in 1% aqueous distilled water solution of methylcellulose (Methocel®). Each dose was given in a standard volume of 0.45 ml. Observations were made at 0.5, 2 and 24 hours after dosing. ED50 values were calculated for each parameter including death (LD50). The ED50 and LD50 values are the doses at which 50% of the naimals would be expected to respond.
(§2) The mouse is placed on a stainless steel wire mesh screen (8 × 12 inches, 3 mesh per inch, 1/4 inch mesh openings) "shoe-box" lid (1 inch high) and is observed for normal activities, such as nose movements, head movements with apparent visual examination of the area, and/or walking around on the screen. Absence of or marked depression of these activities for 5 seconds constitutes loss of exploratory activity.
(§3) The mouse is picked up by the tail and placed on the screen with its head facing the observer. Bilateral eyelid closure of 50% or more two seconds after placement is considered ptosis.
(§4) The mouse is placed with its front paws on the edge of a stainless steel "shoe-box" cover, 1 inch high, covered with adhesive tape. Failure to remove both paws from the cover's edge within 5 seconds constitutes catatonia.
(§5) The observer gently strokes the abdominal musculature of the mouse with thumb and forefinger. Flaccidity (or rarely, tenseness) is recorded.
(§6) The mouse is gently swung by the tail toward a horizontal 12 gauge wire tautly stretched 25 cm above the bench. After the mouse grasps the wire with its forepaws, its posterior end is held directly below the wire. A normal mouse grasps the wire with its forepaws and immediately lifts its hind limbs to the wire. Failure to grasp the wire with the forepaws in both trials constitutes loss of the grip reflex; failure to lift the hind limbs to grasp the wire with at least one hind paw within 5 seconds constitutes loss of the lift reflex.
(§7) The mouse is placed on the bar 10-20 cm horizontally and 9 cm vertically from a Galton whistle adjusted for 13 kc (5 mm on the whistle scale) and is subjected to several short bursts of sound.
(§8) An effective tranquilizer should induce little or no tremor response. […] Tremors include fine or coarse and intermittent or continuous tremors.

female white mice = test: animal or person; conditions: oral, mice; for ED50: Mus musculus, po
Protocol: as §1, §2, §3, §4, §5, §6, §7, §8

[1] = system: phenylquinone-induced writhing; test: Phenylquinone writhing test (analgesia); assay type: in vivo, mouse (Carworth CF1 S female); conditions: for ED50: Mus musculus
Description: This mouse test is predictive of analgesic response in humans. [E. Siegmund, R. Cadmus and G. Lee, Proc. Soc.
ED50 values were obtained graphically from the data.

[2] = read-out: Reflexes Grip ED50, Table 1
[3] = read-out: Catatonia ED50, Table III
[4] = read-out: Exploratory Loss Visual ED50, Table III
[5] = read-out: Muscle Tone ED50, Table III
[6] = read-out: Ptosis ED50, Table III
[7] = read-out: Reflexes Grip ED50, Table III
[8] = read-out: Reflexes Lift ED50, Table III
[9] = read-out: Reflexes Pinna ED50, Table III
[10] = read-out: Catatonia ED50, Table 1
[11] = read-out: Exploratory Loss Visual ED50, Table 1
[12] = read-out: Muscle Tone ED50, Table 1
[13] = read-out: Reflexes Lift ED50, Table 1
[14] = read-out: Reflexes Pinna ED50, Table 1

c1ccc2c(c1)C1CC3(CN(CC4CCCC4)CC23)c2ccccc21 (single isomer, unassigned; (-)) [(-)-Cyclopentylmethyl, 2-Cyclopentylmethyl-2,3,8,12b-tetrahydro-trans-1H,-3a,8-methanodibenzo[3,4:6,7]cyclohepta[1,2-c]pyrrole]
ED50 (in vivo): > 324 mg/kg
LD50 at 24 h (in vivo): > 324 mg/kg
ED50 (female white mice; [2]): 200 mg/kg
Catatonia ED50 (female white mice; Table 1): 7 mg/kg
Exploratory Loss Visual ED50 (female white mice; Table 1): < 4 mg/kg
Muscle Tone ED50 (female white mice; Table 1): < 4 mg/kg
Ptosis ED50 (female white mice; Table 1): < 4 mg/kg
Reflexes Lift ED50 (female white mice; Table 1): 4 mg/kg
Reflexes Pinna ED50 (female white mice; Table 1): 4 mg/kg
Phenylquinone Analgesia ED50 ([1]; Table 1, oral, mice): 1.2 mg/kg

Fc1ccc2c(c1)[C@]13C[C@H]2c2ccccc2[C@H]1CN(CC1CCCC1)C3 (relative stereo) [Example 77, 5-Fluoro-2-cyclopentylmethyl-2,3,8,12b-tetrahydro-1H-3a,8-methanodibenzo[3,4:6,7]cyclohepta[1,2-c]pyrrole Hydrochloride]
LD50 at 24 h (in vivo): > 324 mg/kg
ED50 (female white mice; [3]): 20 mg/kg
ED50 (female white mice; [4]): 7 mg/kg
ED50 (female white mice; [5]): 20 mg/kg
ED50 (female white mice; [6]): 7 mg/kg
ED50 (female white mice; [7]): > 324 mg/kg
ED50 (female white mice; [8]): 20 mg/kg
ED50 (female white mice; [9]): 36 mg/kg
ED50 ([1]; po, Table III, mice): < 130 mg/kg

C1=CCCC(CN2C[C@@H]3c4ccccc4[C@@H]4C[C@@]3(C2)c2ccccc24)CC1 (relative stereo) [Example 33, 2-(4-Cycloheptenylmethyl)-2,3,8,12b-tetrahydro-1H-3a,8-methanodibenzo[3,4:6,7]cyclohepta[1,2-c]pyrrole]
ED50 (in vivo): > 324 mg/kg
LD50 at 24 h (in vivo): > 324 mg/kg
ED50 (female white mice; [10]): 11 mg/kg
ED50 (female white mice; [11]): 9 mg/kg
ED50 (female white mice; [12]): 7 mg/kg
ED50 (female white mice; read-out: Ptosis ED50, Table 1): 4 mg/kg
ED50 (female white mice; [2]): > 324 mg/kg
ED50 (female white mice; [13]): 19 mg/kg
ED50 (female white mice; [14]): 37 mg/kg
ED50 ([1]; po, Table 1, mice): 3.3 mg/kg

FC(F)c1ccc2c(c1)[C@]13C[C@H]2c2ccccc2[C@H]1CN(CC1CCCC1)C3 (relative stereo) [Example 78, 5-Difluoromethyl-2-cyclopentylmethyl-2,3,8,12b-tetrahydro-1H-3a,8-methanodibenzo[3,4:6,7]cyclohepta[1,2c]pyrrole Hydrochloride]
LD50 at 24 h (in vivo): > 324 mg/kg
ED50 (female white mice; [3]): 20 mg/kg
ED50 (female white mice; [4]): 7 mg/kg
ED50 (female white mice; [5]): 7 mg/kg
ED50 (female white mice; [6]): < 4 mg/kg
ED50 (female white mice; [7]): > 324 mg/kg
ED50 (female white mice; [8]): 20 mg/kg
ED50 (female white mice; [9]): 7 mg/kg
ED50 ([1]; po, Table III, mice): < 130 mg/kg

Nc1ccc2c(c1)[C@H]1CN(CC3CCCC3)C[C@@]13C[C@@H]2c1ccc(N)cc13 (relative stereo) [Example 72, 5,11-Diamino-2-cyclopentylmethyl-2,3,8,12b-tetrahydro-1H-3a,8-methanodibenzo[3,4:6,7]cyclohepta[1,2-c]pyrrole]
LD50 at 24 h (in vivo): > 324 mg/kg
ED50 (female white mice; [3]): 20 mg/kg
ED50 (female white mice; [4]): 60 mg/kg
ED50 (female white mice; [5]): 36 mg/kg
ED50 (female white mice; [7]): 200 mg/kg
ED50 (female white mice; [8]): 60 mg/kg
ED50 (female white mice; [9]): 20 mg/kg
ED50 ([1]; po, Table III, mice): 7 mg/kg

CCCCCN1C[C@@H]2c3ccccc3[C@@H]3C[C@@]2(C1)c1ccccc13 (relative stereo) [Example 59, 2-n-Pentyl-2,3,8,12b-tetrahydro-1H-3a,8-methanodibenzo[3,4:6,7]cyclohepta[1,2-c]pyrrole]
LD50 at 24 h (in vivo): > 324 mg/kg
ED50 (female white mice; [10]): 17 mg/kg
ED50 (female white mice; [11]): 8.4 mg/kg
ED50 (female white mice; [12]): 13 mg/kg
ED50 (female white mice; read-out: Ptosis ED50, Table 1): 4.5 mg/kg
ED50 (female white mice; [2]): 100 mg/kg
ED50 (female white mice; [13]): 19 mg/kg
ED50 (female white mice; [14]): 8 mg/kg
ED50 ([1]; Table 1, oral, mice): 8.2 mg/kg

c1ccc([C@@H]2C[C@H]2CN2CC3c4ccccc4C4CC3(C2)c2ccccc24)cc1 (relative stereo) [Example 55, 2-(trans-2-Phenylcyclopropylmethyl)-2,3,8,12 b-tetrahydro-1H-3a,8-methanodibenzo[3,4:6,7]cyclohepta[1,2-c]pyrrole]
ED50 (in vivo): > 324 mg/kg
LD50 at 24 h (in vivo): > 324 mg/kg
ED50 (female white mice; [10]): 200 mg/kg
ED50 (female white mice; [11]): 100 mg/kg
ED50 (female white mice; [12]): 100 mg/kg
ED50 (female white mice; read-out: Ptosis ED50, Table 1): 36 mg/kg
ED50 (female white mice; [2]): > 324 mg/kg
ED50 (female white mice; [13]): 200 mg/kg
ED50 (female white mice; [14]): 200 mg/kg
ED50 ([1]; po, Table 1, mice): 48 mg/kg

CC(C1CCCC1)N1C[C@@H]2c3ccccc3[C@@H]3C[C@@]2(C1)c1ccccc13 (some centres unmarked) [Example 50, 2-(1-Cyclopentylethyl)-2,3,8,12b-tetrahydro-1H-3a,8-methanodibenzo[3,4:6,7]cyclohepta[1,2-c]pyrrole]
ED50 (in vivo): > 324 mg/kg
LD50 at 24 h (in vivo): > 324 mg/kg
ED50 (female white mice; [10]): 20 mg/kg
ED50 (female white mice; [11]): 20 mg/kg
ED50 (female white mice; [12]): 36 mg/kg
ED50 (female white mice; read-out: Ptosis ED50, Table 1): 60 mg/kg
ED50 (female white mice; [2]): 300 mg/kg
ED50 (female white mice; [13]): 60 mg/kg
ED50 (female white mice; [14]): 36 mg/kg
ED50 ([1]; po, Table 1, mice): 23 mg/kg

O=Cc1ccc2c(c1)[C@]13C[C@H]2c2ccccc2[C@H]1CN(CC1CCCC1)C3 (relative stereo) [Example 69, 5-Formyl-2-cyclopentylmethyl-2,3,8,12b-tetrahydro-1H-3a,8-methanodibenzo[3,4:6,7]cyclohepta[1,2-c]pyrrole Hydrochloride]
LD50 at 24 h (in vivo): > 324 mg/kg
ED50 (female white mice; [3]): 60 mg/kg
ED50 (female white mice; [4]): 60 mg/kg
ED50 (female white mice; [5]): 60 mg/kg
ED50 (female white mice; [6]): 36 mg/kg
ED50 (female white mice; [7]): > 324 mg/kg
ED50 (female white mice; [8]): 60 mg/kg
ED50 (female white mice; [9]): 20 mg/kg
ED50 ([1]; po, Table III, mice): < 130 mg/kg

c1ccc2c(c1)C1CC3(CN(CCCC4CCCC4)CC23)c2ccccc21 (centres unmarked) [Example 24, 2-(3-Cyclopentylpropyl)-2,3,8,12b-tetrahydro-1H-3a,8-methanodibenzo[3,4:6,7]cyclohepta[1,2-c]pyrrole]
ED50 (in vivo): > 324 mg/kg
LD50 at 24 h (in vivo): > 324 mg/kg
ED50 (female white mice; [10]): 7 mg/kg
ED50 (female white mice; [11]): 7 mg/kg
ED50 (female white mice; [2]): > 324 mg/kg
ED50 (female white mice; [13]): 17 mg/kg
ED50 (female white mice; [14]): 17 mg/kg
ED50 ([1]; po, Table 1, mice): 6 mg/kg

c1csc(CN2C[C@@H]3c4ccccc4[C@@H]4C[C@@]3(C2)c2ccccc24)c1 (relative stereo) [Example 54, 2-(2-Thienylmethyl)-2,3,8,12b-tetrahydro-1H-3a,8-methanodibenzo[3,4:6,7]cyclohepta[1,2-c]pyrrole]
ED50 (in vivo): > 324 mg/kg
LD50 at 24 h (in vivo): > 324 mg/kg
ED50 (female white mice; [10]): 200 mg/kg
ED50 (female white mice; [11]): 200 mg/kg
ED50 (female white mice; [12]): 200 mg/kg
ED50 (female white mice; read-out: Ptosis ED50, Table 1): 60 mg/kg
ED50 (female white mice; [2]): > 324 mg/kg
ED50 (female white mice; [13]): > 324 mg/kg
ED50 (female white mice; [14]): 200 mg/kg
ED50 ([1]; po, Table 1, mice): 27 mg/kg

CCCCCCCCN1CC2c3ccccc3C3CC2(C1)c1ccccc13 (centres unmarked) [Example 16, 2-n-Octyl-2,3,8,12b-tetrahydro-1H-3a,8-methanodibenzo[3,4:6,7]cyclohepta[1,2-c]pyrrole]
ED50 (in vivo): > 324 mg/kg
LD50 at 24 h (in vivo): > 324 mg/kg
ED50 (female white mice; [11]): 20 mg/kg
ED50 (female white mice; [2]): > 324 mg/kg
ED50 (female white mice; [13]): 20 mg/kg
ED50 (female white mice; [14]): 20 mg/kg
ED50 ([1]; po, Table 1, mice): 12 mg/kg

FCc1ccc2c(c1)[C@]13C[C@H]2c2ccccc2[C@H]1CN(CC1CCCC1)C3 (relative stereo) [Example 87, 5-Fluoromethyl-2-cyclopentylmethyl-2,3,8,12b-tetrahydro-1H-3a,8-methanodibenzo[3,4:6,7]cyclohepta[1,2-c]-pyrrole Hydrochloride]
LD50 at 24 h (in vivo): > 324 mg/kg
ED50 (female white mice; [3]): 36 mg/kg
ED50 (female white mice; [4]): 12 mg/kg
ED50 (female white mice; [5]): 36 mg/kg
ED50 (female white mice; [6]): 7 mg/kg
ED50 (female white mice; [7]): 300 mg/kg
ED50 (female white mice; [8]): 36 mg/kg
ED50 (female white mice; [9]): 36 mg/kg
ED50 ([1]; po, Table III, mice): 78 mg/kg

COCCN1C[C@@H]2c3ccccc3[C@@H]3C[C@@]2(C1)c1ccccc13 (relative stereo) [Example 41, 2-(2-Methoxyethyl)-2,3,8,12b-tetrahydro-1H-3a,8-methanodibenzo[3,4:6,7]cyclohepta[1,2-c]pyrrole]
ED50 (in vivo): > 324 mg/kg
LD50 at 24 h (in vivo): 300 mg/kg
ED50 (female white mice; [10]): 20 mg/kg
ED50 (female white mice; [11]): 20 mg/kg
ED50 (female white mice; [12]): 36 mg/kg
ED50 (female white mice; read-out: Ptosis ED50, Table 1): 20 mg/kg
ED50 (female white mice; [2]): 200 mg/kg
ED50 (female white mice; [13]): 36 mg/kg
ED50 (female white mice; [14]): 20 mg/kg
ED50 ([1]; po, Table 1, mice): 4.2 mg/kg
